From patent publication US4847245A, “N-demethylefrotomycin” (Pfizer Inc., priority 1988, dated 1989)
In brackets after ≈: the same amount, converted by molar mass. Like-named read-outs stand apart in the source and are kept apart here.

Tests used:
Acto. pyog. = test: MIC in brain heart infusion (BHI) broth, two-fold dilutions; assay type: cell-based; conditions: 24 h
Description: (§1) Generally twelve 2 fold dilutions of the test compound are employed, with initial concentration of the test drug being in the range of 50 to 200 mcg./ml. The susceptibility (MIC) of the test organism is accepted as the lowest concentration of compound capable of producing complete inhibition of growth as judged by the naked eye.

E. coli = test: as above; assay type: cell-based; conditions: Escherichia coli
Description: as §1

Fusob. necro. = test: as above; assay type: cell-based; conditions: 24 h
Description: as §1

Hemoph. pleur. = test: as above; assay type: cell-based; conditions: 24 h
Description: as §1

Lact. acidoph. = test: as above; assay type: cell-based; conditions: 24 h; Lact. acidoph. 001, Day 1
Description: as §1

Lact. sp. = test: as above; assay type: cell-based; conditions: 24 h; Lact. sp. 001, Day 1
Description: as §1

Morax. bovis = test: as above; assay type: cell-based
Description: as §1

Past. haem. = test: as above; assay type: cell-based
Description: as §1

Past. mult = test: as above; assay type: cell-based
Description: as §1

Staph. aureus = test: as above; assay type: cell-based; conditions: Staphylococcus aureus
Description: as §1

Strep. zooedid. = test: as above; assay type: cell-based; conditions: 24 h; Strep. zooedid. 001, Day 1
Description: as §1

Trepo. hyodis. = test: as above; assay type: cell-based; conditions: 24 h
Description: as §1

Past. haem. 010 = test: mouse protection test; assay type: in vivo; conditions: mice infected i.p. with multilethal amounts of Past. haem. 010
Protocol: Additionally, compound (I) is tested in vivo by the well-known mouse protection test, or by a microbiological (bioassay) determination of serum levels in a variety of mammals (e.g., mouse, rat, dog). For example, at subcutaneous doses of either 100 mg./kg. or 25 mg./kg., there was survival of 5/5 mice infected i.p. with multilethal amounts of Past. haem. 010.

`CC=CC=CC1OC(O)(C(CC)C(=O)NCC=CC=C(C)C(OC)C(C)C2OC(C=CC=CC=C(C)C(=O)c3c(O)cc[nH]c3=O)C(O)C2O)C(O)C(OC2OC(C)C(OC3OC(C)C(OC)C(O)C3OC)C(OC)C2O)C1(C)C` (stereo not drawn) [N--Demethylefrotomycin, N-demethylefrotomycin] was tested, and the MIC (Acto. pyog.; Acto. pyog. 002, Day 1) was 12.5 µg/mL (≈ 11 µM), the MIC (Acto. pyog.; Acto. pyog. 008, Day 1) was 12.5 µg/mL (≈ 11 µM) and the MIC (Acto. pyog.; Acto. pyog. 011, Day 1, read-out: MIC) was 100 µg/mL (≈ 88.4 µM). It also gave an MIC (E. coli; 24 h, E. coli 124, Day 1) greater than 100 µg/mL, an MIC (E. coli; 48 h, E. coli 124, Day 2) greater than 100 µg/mL and an MIC (Fusob. necro.; Fusob. necro. 004, Day 1) of 25 µg/mL (≈ 22.1 µM). It also gave an MIC (Fusob. necro.; Fusob. necro. 006, Day 1) of 6.25 µg/mL (≈ 5.52 µM), an MIC (Hemoph. pleur.; Hemoph. pleur. 004, Day 1) of 12.5 µg/mL (≈ 11 µM) and an MIC (Hemoph. pleur.; Hemoph. pleur. 005, Day 1) of 12.5 µg/mL (≈ 11 µM). It also gave an MIC (Hemoph. pleur.; Hemoph. pleur. 024, Day 1, read-out: MIC) greater than 100 µg/mL, an MIC (Lact. acidoph.) of 12.5 µg/mL (≈ 11 µM) and an MIC (Lact. sp.) greater than 100 µg/mL. For the same compound, the MIC (Morax. bovis; 24 h, Morax. bovis 001, Day 1) was 6.25 µg/mL (≈ 5.52 µM), the MIC (Morax. bovis; 48 h, Morax. bovis 001, Day 2) was 3.12 µg/mL (≈ 2.76 µM) and the MIC (Past. haem.; 24 h) was 12.5 µg/mL (≈ 11 µM). The MIC (Past. haem.; 24 h, Past. haem. 010, Day 1, read-out: MIC) was 3.12 µg/mL (≈ 2.76 µM), the MIC (Past. haem.; 24 h, Past. haem. 046, Day 1, read-out: MIC) was 25 µg/mL (≈ 22.1 µM) and the MIC (Past. haem.; 24 h, Past. haem. 061, Day 1, read-out: MIC) was 25 µg/mL (≈ 22.1 µM). It also gave an MIC (Past. haem.; 48 h) of 12.5 µg/mL (≈ 11 µM), an MIC (Past. haem.; 48 h, Past. haem. 061, Day 2, read-out: MIC) of 3.12 µg/mL (≈ 2.76 µM) and an MIC (Past. haem.; Past. haem. 046, Day 2) of 12.5 µg/mL (≈ 11 µM). The MIC (Past. mult; 24 h, Past. mult 006, Day 1, read-out: MIC) was 6.25 µg/mL (≈ 5.52 µM), the MIC (Past. mult; 24 h, Past. mult 048, Day 1, read-out: MIC) was 3.12 µg/mL (≈ 2.76 µM) and the MIC (Past. mult; 48 h) was 12.5 µg/mL (≈ 11 µM). It also gave an MIC (Past. mult; 48 h, Past. mult 048, Day 2, read-out: MIC) of 6.25 µg/mL (≈ 5.52 µM), an MIC (Staph. aureus; 24 h, Staph. aureus 006, Day 1) greater than 100 µg/mL and an MIC (Staph. aureus; 48 h, Staph. aureus 006, Day 2) greater than 100 µg/mL. For the same compound, the MIC (Strep. zooedid.) was greater than 100 µg/mL, the MIC (Trepo. hyodis.; Trepo. hyodis. 001, Day 1) was 1.56 µg/mL (≈ 1.38 µM) and the MIC (Trepo. hyodis.; Trepo. hyodis. 002, Day 1) was 0.78 µg/mL (≈ 0.689 µM). For the same compound, the MIC (Trepo. hyodis.; Trepo. hyodis. 007, Day 1) was 1.56 µg/mL (≈ 1.38 µM), the survival of mice (Past. haem. 010; subcutaneous 25 mg./kg.) was 5/5 and the survival of mice (Past. haem. 010; subcutaneous 100 mg./kg.) was 5/5.
